For 15 compounds, Emax, EC50 and inhibition results are on record in US20250122169A1, “PPARG INVERSE AGONISTS AND USES THEREOF” (Flare Therapeutics Inc., priority 2021, published 2025).

Assay [1] deals with T1, PPARG/RXRA LBD heterodimer (Homo sapiens, UniProt P37231).
T1 construct: 2 nM WT PPARG LBD (E. coli expressed, His-TEV-Q203-Y477); fused on or other part: N-terminal His tag with TEV site on the PPARG LBD
The assay can be described thus: PPARγ-NCOR1 recruitment assay (TR-FRET). Type of assay: biochemical. The conditions noted are these: for Emax: 3 h, maximal extent, T0070907 defined as 100%, DMSO 0%, read-out: % NCOR recruitment relative to T907; for EC50: TR-FRET, NCOR1 ID2 peptide, 80 nM Rosiglitazone, 3 hours, read-out: PPARG-NCOR recruitment assay EC50. How it is done: Compound potency (EC50) and maximal extent of NCOR1 recruitment to PPARG were assessed a TR-FRET binding assay measuring association of a biotinylated NCOR1 ID2 peptide (Biotin-[…]-amide) to PPARG/RXRA LBD heterodimer.
For orientation: In TR-FRET formats the signal depends on donor and acceptor labels being close together.
T1 sequence (O75376 2251-2273 limits assumed, one chain of several, further chain): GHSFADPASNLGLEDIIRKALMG

Assay [2] addresses T2, PPARG/RXRA LBD heterodimer (Homo sapiens, UniProt P37231).
T2 construct: His-TEV-Q203-Y477; Uniprot ID P37231-2; made in house; host or cells: E. coli
T2 sequence (P37231 203-477 isoform P37231-2): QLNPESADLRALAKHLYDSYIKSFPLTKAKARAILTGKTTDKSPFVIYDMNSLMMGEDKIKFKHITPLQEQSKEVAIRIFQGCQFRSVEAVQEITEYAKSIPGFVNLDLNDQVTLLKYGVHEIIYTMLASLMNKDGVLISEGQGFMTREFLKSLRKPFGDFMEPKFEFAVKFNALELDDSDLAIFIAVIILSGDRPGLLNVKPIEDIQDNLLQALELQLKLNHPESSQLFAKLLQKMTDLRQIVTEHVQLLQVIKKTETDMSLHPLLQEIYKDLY
T2 sequence (P19793 228-462 partner limits assumed): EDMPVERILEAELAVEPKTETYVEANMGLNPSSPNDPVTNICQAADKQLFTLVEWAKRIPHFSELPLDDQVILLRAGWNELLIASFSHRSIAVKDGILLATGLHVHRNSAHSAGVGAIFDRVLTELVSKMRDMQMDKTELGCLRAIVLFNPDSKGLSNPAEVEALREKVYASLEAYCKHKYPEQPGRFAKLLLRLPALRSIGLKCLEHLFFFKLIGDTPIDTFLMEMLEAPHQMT
The assay can be described thus: PPARγ-MED1 blockade assay (TR-FRET). The conditions noted are these: for EC50: TR-FRET, MED1 LxxLL peptide, 80 nM Rosiglitazone, 3 hours; for Emax: maximal extent, GW9662 defined as 100%, DMSO 0%, read-out: % MED1 blockade relative to GW9662. The assay is classed as biochemical. The method, then:
Compound potency (IC50) and maximal extent of MED1 repulsion to PPARG were assessed a TR-FRET binding assay measuring association of a biotinylated MED1 LxxLL peptide (Biotin-[…]-amide) to PPARG/RXRA LBD heterodimer.

In assay [3] the test system is ANGPTL4, a PPARG target gene, in HT1197 (RXRA S427F mutation) cells. The assay can be described thus: Bladder cancer pharmacodynamic assay, HT1197 cell assay (qPCR of PPARG target gene ANGPTL4). The assay is classed as cell-based. The conditions noted are these: Homo sapiens, read-out: % inhibition of ANGPTL4 @ 100 nM, 100 nM compound, 24 hours, relative to DMSO control. The method, then:
Quantitative PCR was performed using an ABI QuantStudio 7 Flex Reaction system. Data were analyzed and reported relative to DMSO control using the comparative Ct method (ΔΔCt).

The structures appear in SMILES notation. A value given as a limit tells only on which side of the number the result lay.

Consider `CS(=O)(=O)c1cnc(C#N)cc1-c1cc(=O)c2ccc(Cl)cc2[nH]1` [Example 30, 4-(7-chloro-4-oxo-1,4-dihydroquinolin-2-yl)-5-(methylsulfonyl)picolinonitrile], for which, in assay [1], the Emax was above 100% and the EC50 was below 10 nM. In addition, in assay [2], the 50% effective concentration (EC50) was below 10 nM and the Emax was above 100%. The inhibition at 0.1 µM in assay [3] was 88%.
Consider `CN(C)C(=O)[C@H]1CCCN(c2c(F)cc3[nH]c(-c4cc(C#N)ncc4S(C)(=O)=O)cc(=O)c3c2F)C1` (single isomer, unassigned) [Example 34], for which the Emax in assay [1] and in assay [2] was above 100% in each case. For the same compound, the EC50 in assay [1] and in assay [2] was below 10 nM each time. For the same compound, the inhibition at 0.1 µM in assay [3] stood at 87%.
Consider `CN1CCC(c2c(F)cc3[nH]c(-c4nc(C#N)ccc4Cl)cc(=O)c3c2F)CC1` [Example 16, 5-chloro-6-(5,7-difluoro-6-(1-methylpiperidin-4-yl)-4-oxo-1,4-dihydroquinolin-2-yl)picolinonitrile], for which the Emax in assay [1] and in assay [2] was above 100% each time. The half-maximal effective concentration (EC50) in assay [1] and in assay [2] was 10 to 100 nM in each case. Further, the inhibition at 0.1 µM in assay [3] was found to be 85%.
As to `N#Cc1ccc(Cl)c(-c2cc(=O)c3cc(F)c(F)cc3[nH]2)n1` [Example 1, 5-chloro-6-(6,7-difluoro-4-oxo-1,4-dihydroquinolin-2-yl)picolinonitrile], in assay [1], the Emax is above 100% and the EC50 was in the range of 10 to 100 nM. Also, in assay [2], the EC50 lay within 10 to 100 nM and the Emax is above 100%. For the same compound, the inhibition at 0.1 µM in assay [3] came out at 91%.
As to `CS(=O)(=O)c1ccc(C#N)nc1-c1cc(=O)c2c(F)cc(F)cc2[nH]1` [Example 32, 6-(5,7-difluoro-4-oxo-1,4-dihydroquinolin-2-yl)-5-(methylsulfonyl)picolinonitrile], in assay [1], the Emax is above 100% and the EC50 was below 10 nM. In assay [2], the EC50 was below 10 nM and the Emax is above 100%. Further, the inhibition at 0.1 µM in assay [3] was determined as 87%.
For `CN(C)CCOc1cnc(C#N)cc1-c1cc(=O)c2c(F)cc(F)cc2[nH]1` [Example 11, 4-(5,7-difluoro-4-oxo-1,4-dihydroquinolin-2-yl)-5-(2-(dimethylamino)-ethoxy)-picolinonitrile], in assay [1], the Emax was above 100% and the EC50 lay within 1000 to 10000 nM. Further, in assay [2], the EC50 is 1000 to 10000 nM and the Emax was above 100%. Besides, the inhibition at 0.1 µM in assay [3] was determined as 58%.
Take `N#Cc1ccc(Cl)c(-c2cc(=O)c3c(F)c(N4CCS(=O)(=O)CC4)c(F)cc3[nH]2)n1` [Example 17, 5-chloro-6-(6-(1,1-dioxidothiomorpholino)-5,7-difluoro-4-oxo-1,4-dihydroquinolin-2-yl)picolinonitrile]: the Emax in assay [1] and in assay [2] was above 100% each time. Moreover, the EC50 in assay [1] and in assay [2] was 10 to 100 nM throughout. Moreover, the inhibition at 0.1 µM in assay [3] amounted to 78%.
As to `CN1CCC(c2c(F)cc3[nH]c(-c4cc(C#N)ncc4Cl)cc(=O)c3c2F)CC1` [Example 20, 5-chloro-4-(5,7-difluoro-6-(1-methylpiperidin-4-yl)-4-oxo-1,4-dihydroquinolin-2-yl)picolinonitrile], in assay [1], the Emax is above 100% and the EC50 was in the range of 10 to 100 nM. Also, in assay [2], the EC50 was in the range of 10 to 100 nM and the Emax was above 100%. Moreover, in assay [3], the inhibition at 0.1 µM came out at 80%.
As to `C[S+]([O-])c1cnc(C#N)cc1-c1cc(=O)c2c(F)cc(F)cc2[nH]1` (stereo not drawn) [Example 28, 4-(5,7-difluoro-4-oxo-1,4-dihydroquinolin-2-yl)-5-(methylsulfinyl)picolinonitrile], in assay [1], the Emax is above 100% and the EC50 fell in the range of 10 to 100 nM. For the same compound, in assay [2], the EC50 fell in the range of 10 to 100 nM and the Emax was above 100%. Further, the inhibition at 0.1 µM in assay [3] turned out to be 79%.
As to `CS(=O)(=O)c1cnc(C#N)cc1-c1cc(=O)c2c(F)cc(Cl)cc2[nH]1` [Example 31, 4-(7-chloro-5-fluoro-4-oxo-1,4-dihydroquinolin-2-yl)-5-(methylsulfonyl)picolinonitrile], in assay [1], the Emax is above 100% and the EC50 is below 10 nM. Besides, in assay [2], the concentration giving a half-maximal response (EC50) was below 10 nM and the Emax is above 100%. Besides, the inhibition at 0.1 µM in assay [3] was determined as 86%.
With `N#Cc1ncc(Cl)c(-c2cc(=O)c3c(F)cc(F)cc3[nH]2)n1` [Example 33, 5-chloro-4-(5,7-difluoro-4-oxo-1,4-dihydroquinolin-2-yl)pyrimidine-2-carbonitrile], in assay [1], the Emax is above 100% and the concentration for a half-maximal effect (EC50) was below 10 nM. Besides, in assay [2], the EC50 is below 10 nM and the Emax is above 100%. For the same compound, the inhibition at 0.1 µM in assay [3] was 31%.
For `N#Cc1cnc(Cl)c(-c2cc(=O)c3c(F)cc(F)cc3[nH]2)c1` [Example 27, 6-chloro-5-(5,7-difluoro-4-oxo-1,4-dihydroquinolin-2-yl)nicotinonitrile], in assay [1], the Emax is above 100% and the half-maximal effective concentration (EC50) was 10 to 100 nM. Moreover, in assay [2], the concentration for a half-maximal effect (EC50) fell in the range of 10 to 100 nM and the Emax was above 100%. The inhibition at 0.1 µM in assay [3] came to 70%.
Take `CN1CCN(c2cc3c(=O)cc(-c4cc(C#N)ncc4Cl)[nH]c3cc2Cl)CC1` [Example 14, 5-chloro-4-(7-chloro-6-(4-methylpiperazin-1-yl)-4-oxo-1,4-dihydroquinolin-2-yl)picolinonitrile]: the Emax in assay [1] and in assay [2] was above 100% each time. In addition, the EC50 in assay [1] and in assay [2] was 10 to 100 nM throughout. The inhibition at 0.1 µM in assay [3] was found to be 88%.
For the compound `N#Cc1cc(-c2cc(=O)c3ccc(Cl)cc3[nH]2)c(Cl)cn1` [Example 4, 5-chloro-4-(7-chloro-4-oxo-1,4-dihydroquinolin-2-yl)picolinonitrile], in assay [1], the Emax was above 100% and the EC50 was below 10 nM. Further, in assay [2], the EC50 is below 10 nM and the Emax is above 100%. Besides, the inhibition at 0.1 µM in assay [3] stood at 88%.
For the compound `CN(C)C(=O)[C@@H]1CCCN(c2c(F)cc3[nH]c(-c4cc(C#N)ncc4Cl)cc(=O)c3c2F)C1` [Example 22, (R)-1-(2-(5-chloro-2-cyanopyridin-4-yl)-5,7-difluoro-4-oxo-1,4-dihydroquinolin-6-yl)-N,N-dimethylpiperidine-3-carboxamide], the Emax in assay [1] and in assay [2] was above 100% each time. Also, the figures for the EC50 in assay [1] and in assay [2] were below 10 nM and 10 to 100 nM, respectively. Also, the inhibition at 0.1 µM in assay [3] came out at 91%.

By EC50 is commonly meant the midpoint of the concentration-response curve. As a reminder, the inhibition is the drop in the measured response relative to a control, in per cent.
